Results as given in patent US20080160520A1, “Methods and Composition for Diagnosing and Treating Cancer” (priority 2006, published 2008).
Like-named read-outs stand apart in the source and are kept apart here. Where a SMILES comes first, the peptide text is derived from it. The star is where a group is joined. Cbz = O=C(OCc1ccccc1)*

Key:
Assay type in all cases: cell-based, S. cerevisiae
[1] = system: aneuploid yeast strains; settings: for colony formation of aneuploids on medium containing the agent: compared with wild-type cells, FIG. 13B, E, I
From the text: To determine whether the synthesis of proteins from the additional chromosomes and their presence in the cell represents an increased burden on the cell's protein production machinery, the ability of aneuploid strains to grow under conditions that interfere with transcription, protein synthesis and protein folding was examined.

[2] = system: YAC-bearing strains; settings: YACs with human or mouse DNA inserts; FIG. 5B
Procedure: Strains (from the top): A11311, A16850, A17392, A17393, A17394, A13628, A17396, A17397, A16851.
The phenotypes shared by aneuploids might result from the mere presence of additional DNA or from the RNAs and proteins synthesized from these chromosomes. Thus, the effects of seven yeast artificial chromosomes (YACs) containing human or mouse DNA inserts ranging from approximately 350 kb to 1.6 MB in size were tested (Table 3).
The other phenotypes observed in aneuploids were not shared by the YAC-bearing strains. […] Progression through other cell cycle stages was not affected either as judged by DNA content analysis (FIGS. 5, C and D).

[3] = system: cdc28-4 and cdc23-1 mutants; assay: Sensitivity of slow-proliferating cdc28-4 and cdc23-1 mutants to protein synthesis inhibitors; settings: mutants severely impaired in cell division even at 23° C.; FIGS. 4C and D

NC(=O)NO [hydroxyurea]
colony formation of aneuploids on medium containing the agent [1]: formed colonies as well as wild-type cells

C[C@@H]1C[C@@H]([C@H](O)CC2CC(=O)NC(=O)C2)C(=O)[C@@H](C)C1 [cycloheximide]
proliferation of aneuploid strains ([1]; 0.05 μg/ml, FIG. 4C): proliferation of most was impaired
proliferation of all aneuploid strains ([1]; 0.1 μg/ml and 0.2 μg/ml, FIG. 4C): decreased proliferation
proliferation of all aneuploid strains ([1]; all aneuploid strains, FIG. 4C): hampered
sensitivity of YAC-bearing strains [2]: did not exhibit increased sensitivity
sensitivity of cdc28-4 and cdc23-1 mutants [3]: did not exhibit increased sensitivity

O=C(O)C1CCN1 (stereo not drawn) [azetidine 2-carboxylic acid]
colony formation of aneuploids on medium containing the agent [1]: formed colonies as well as wild-type cells

CCCCNC(=O)n1c(NC(=O)OC)nc2ccccc21 [benomyl]
sensitivity of aneuploid strains ([1]; 10 and 20 μg/ml, FIG. 13F): About half of the aneuploid strains analyzed exhibited increased sensitivity

CC(C)C[C@@H](C=O)NC(=O)[C@H](CC(C)C)NC(=O)[C@H](CC(C)C)NC(=O)OCc1ccccc1 [MG 132] (Cbz-Leu-Leu-Leu-aldehyde)
proliferation of aneuploid strains (ability to form colonies on plates containing the drug) ([1]; disomes IV, XII, XIII, XIV and XVI, PDR5 deleted, concentrations that wild-type cells grow at, FIG. 4F): inhibited

CC[C@H]1/C=C/C=C/C[C@@H](C)[C@H](O)[C@@](C)(O)C(=O)[C@@H](C)[C@H](O)[C@@H](C)C(=O)[C@@H](C)[C@H](O)[C@@H](C)/C=C/C(=O)O[C@@H]2[C@H](C)[C@H](CC1)O[C@]1(CC[C@H](C)[C@H](C[C@@H](C)O)O1)[C@H]2C [oligomycin]
sensitivity of aneuploid strains ([1]; increasing concentrations, FIG. 13I): did not exhibit increased sensitivity

CC(=O)Nc1c2sscc-2n(C)c1=O [Thiolutin]
proliferation of aneuploids ([1]; high concentration 20 μg/ml, all aneuploids except disomes I, X, XIV, FIG. 4B): inhibited
proliferation of aneuploids ([1]; low concentrations 5 μg/ml to 15 μg/ml, FIG. 13H): proliferation of only a subset of strains was impaired
sensitivity of YAC-bearing strains [2]: did not exhibit increased sensitivity

O=c1cn[nH]c(=O)[nH]1 [6-Azauracil]
colony formation of aneuploids on medium containing the agent [1]: formed colonies as well as wild-type cells

OO [hydrogen peroxide]
proliferation of aneuploids in the presence of the agent ([1]; 1 mM, FIG. 13D, G): None of the aneuploids showed altered proliferation
